Test results reported in ChEMBL document CHEMBL1147100, “Metronidazole plus rifampin sterilizes long-term dormant Mycobacterium tuberculosis” (Antimicrob Agents Chemother, 2007).
Active and inactive are the calls of the source. The calls are words filed in the database; no cut-off is given here.

What was measured:
Assay type in all cases: functional, organism-based
[1] = system: Mycobacterium tuberculosis; test: Bactericidal activity against 19-day old non-replicating Mycobacterium tuberculosis H37Rv in anaerobic condition at 8 ug/ml after 11 days by Wayne dormancy culture model
[2] = system: Mycobacterium tuberculosis; test: Bactericidal activity against 12-day old non-replicating Mycobacterium tuberculosis H37Rv in anaerobic condition at 8 ug/ml after 4 days by Wayne dormancy culture model
[3] = system: Mycobacterium tuberculosis; test: Bactericidal activity against 5-day old actively replicating Mycobacterium tuberculosis H37Rv in aerobic condition at 8 ug/ml by Wayne dormancy culture model
[4] = system: Mycobacterium tuberculosis; test: Bactericidal activity against 26-day old non-replicating Mycobacterium tuberculosis H37Rv in anaerobic condition at 8 ug/ml after 4 days by Wayne dormancy culture model
[5] = system: Mycobacterium tuberculosis; test: Bactericidal activity against 19-day old non-replicating Mycobacterium tuberculosis H37Rv in anaerobic condition at 8 ug/ml after 1 day by Wayne dormancy culture model
[6] = system: Mycobacterium tuberculosis; test: Bactericidal activity against 12-day old non-replicating Mycobacterium tuberculosis H37Rv in anaerobic condition at 8 ug/ml after 1 day by Wayne dormancy culture model
[7] = system: Mycobacterium tuberculosis; test: Bactericidal activity against 26-day old non-replicating Mycobacterium tuberculosis H37Rv in anaerobic condition at 8 ug/ml after 11 days by Wayne dormancy culture model
[8] = system: Mycobacterium tuberculosis; test: Bactericidal activity against 12-day old non-replicating Mycobacterium tuberculosis H37Rv in anaerobic condition at 8 ug/ml after 11 days by Wayne dormancy culture model
[9] = system: Mycobacterium tuberculosis; test: Bactericidal activity against 26-day old non-replicating Mycobacterium tuberculosis H37Rv in anaerobic condition at 8 ug/ml after 1 day by Wayne dormancy culture model
[10] = system: Mycobacterium tuberculosis; test: Bactericidal activity against 19-day old non-replicating Mycobacterium tuberculosis H37Rv in anaerobic condition at 8 ug/ml after 4 days by Wayne dormancy culture model
[11] = system: Mycobacterium tuberculosis; test: Bactericidal activity against 26-day old non-replicating Mycobacterium tuberculosis H37Rv in anaerobic condition at 1 ug/ml after 4 days by Wayne dormancy culture model
[12] = system: Mycobacterium tuberculosis; test: Bactericidal activity against 26-day old non-replicating Mycobacterium tuberculosis H37Rv in anaerobic condition at 1 ug/ml after 11 days by Wayne dormancy culture model
[13] = system: Mycobacterium tuberculosis; test: Bactericidal activity against 5-day old actively replicating Mycobacterium tuberculosis H37Rv in aerobic condition at 1 ug/ml after 11 days by Wayne dormancy culture model
[14] = system: Mycobacterium tuberculosis; test: Bactericidal activity against 12-day old non-replicating Mycobacterium tuberculosis H37Rv in anaerobic condition at 1 ug/ml after 1 day by Wayne dormancy culture model
[15] = system: Mycobacterium tuberculosis; test: Bactericidal activity against 12-day old non-replicating Mycobacterium tuberculosis H37Rv in anaerobic condition at 1 ug/ml after 11 days by Wayne dormancy culture model
[16] = system: Mycobacterium tuberculosis; test: Bactericidal activity against 19-day old non-replicating Mycobacterium tuberculosis H37Rv in anaerobic condition at 1 ug/ml after 1 day by Wayne dormancy culture model
[17] = system: Mycobacterium tuberculosis; test: Bactericidal activity against 5-day old actively replicating Mycobacterium tuberculosis H37Rv in aerobic condition at 1 ug/ml after 4 days by Wayne dormancy culture model
[18] = system: Mycobacterium tuberculosis; test: Bactericidal activity against 26-day old non-replicating Mycobacterium tuberculosis H37Rv at 1 ug/ml after 1 day by Wayne in anaerobic condition dormancy culture model
[19] = system: Mycobacterium tuberculosis; test: Bactericidal activity against 19-day old non-replicating Mycobacterium tuberculosis H37Rv in anaerobic condition at 1 ug/ml after 4 days by Wayne dormancy culture model
[20] = system: Mycobacterium tuberculosis; test: Bactericidal activity against 19-day old non-replicating Mycobacterium tuberculosis H37Rv in anaerobic condition at 1 ug/ml after 11 days by Wayne dormancy culture model
[21] = system: Mycobacterium tuberculosis; test: Bactericidal activity against 5-day old actively replicating Mycobacterium tuberculosis H37Rv in aerobic condition at 1 ug/ml after 1 day by Wayne dormancy culture model
[22] = system: Mycobacterium tuberculosis; test: Bactericidal activity against 12-day old non-replicating Mycobacterium tuberculosis H37Rv in anaerobic condition at 1 ug/ml after 4 days by Wayne dormancy culture model

For `Cc1ncc([N+](=O)[O-])n1CCO`, the Activity [1] was “Active”, the Activity [2] was “Active” and the Activity [3] was “inactive”. The Activity [4] was “Active”, the Activity [5] was “Active” and the Activity [6] was “Active”. For the same compound, the Activity [7] was “Active”, the Activity [8] was “Active” and the Activity [9] was “Active”. The Activity [10] was “Active”.
In the case of `CO[C@H]1/C=C/O[C@@]2(C)Oc3c(C)c(O)c4c(O)c(c(/C=N/N5CCN(C)CC5)c(O)c4c3C2=O)NC(=O)/C(C)=C\C=C\[C@H](C)[C@H](O)[C@@H](C)[C@@H](O)[C@@H](C)[C@H](OC(C)=O)[C@@H]1C`, the Activity [11] was “Active”, the Activity [12] was “Active” and the Activity [13] was “Active”. The Activity [14] was “Active”, the Activity [15] was “Active” and the Activity [16] was “Active”. For the same compound, the Activity [17] was “Active”, the Activity [18] was “Active” and the Activity [19] was “Active”. For the same compound, the Activity [20] was “Active”, the Activity [21] was “Active” and the Activity [22] was “Active”.
